≈ marks a conversion by molar mass, not a printed value. Where a SMILES comes first, the peptide text is derived from it. [ ]: non-standard residue; d: D form.
Legend:
E. coli = assay: microbe, parasite or virus in culture; type: cell-based, Escherichia coli; conditions: for Minimal inhibitory concentration MIC: 16 h; for Antibacterial activity relative to PapMA-1: E. coli
Description: (§1) For the antibacterial activity, a minimal inhibitory concentration (MIC) of a peptide in which fungus bodies were not split in an MH medium with sufficient nutrients was measured.
(§2) Specifically, the strains described in the following [Table 2] were purchased and diluted with an MH medium such that the number of bacteria was 2×10^6 colony-forming units (CFUs), 100 μl of each of the diluted strains was aliquoted into a 96-well microtiter plate, and then 100 μl of a peptide solution diluted with the MH medium (solution diluted stepwise at 2: 1) was added to each well.

MDREC 1229 [1] = assay: microbe, parasite or virus in culture; type: cell-based, Escherichia coli
Description: as §1, §2

MDREC 1238 = type: cell-based, Escherichia coli
Description: as §1, §2

MDRPA 2002 = type: cell-based, Pseudomonas aeruginosa
Description: as §1, §2

MDRPA 2003 = type: cell-based, Pseudomonas aeruginosa
Description: as §1, §2

MDRAB 12036 = type: cell-based, Acinetobacter baumannii
Description: as §1, §2

S. typhimurium = assay: microbe, parasite or virus in culture; type: cell-based, Salmonella typhimurium
Description: as §1, §2

MDRST 8009 = type: cell-based, Salmonella typhimurium; conditions: agent alone
Description: as §1, §2

B. subtilis = assay: microbe, parasite or virus in culture; type: cell-based, Bacillus subtilis
Description: as §1, §2

S. aureus = assay: microbe, parasite or virus in culture; type: cell-based, Staphylococcus aureus
Description: as §1, §2

MRSA 3114 = type: cell-based, Staphylococcus aureus; conditions: 3114
Description: as §1, §2

MRSA 3126 = type: cell-based, Staphylococcus aureus; conditions: 3126
Description: as §1, §2

MDREC 1229 [2] = assay: MIC of antibiotic during combined treatment with antimicrobial peptide; type: cell-based, Escherichia coli
Description: Specifically, the strains described in [Table 2] were prepared and diluted with an MH medium such that the number of bacteria was 2×10^6 colony-forming units (CFUs) per 1 ml, 100 μl of the diluted strains was each aliquoted into a 96-well microtiter plate, and then 50 μl of a peptide solution diluted with the MH medium from the MIC value (solution diluted stepwise at 2: 1) was added to each well. Thereafter, the MIC value of each mixed solution was determined by diluting the antibiotic solution with the MH medium, adding 50 μl of the diluted solution to each well, and performing an experiment even under a reversed condition.

[3] = peptide treatment concentration 1 μg/ml
[4] = peptide treatment concentration 2 μg/ml
[5] = peptide treatment concentration 4 μg/ml
[6] = peptide treatment concentration 6 μg/ml
[7] = peptide treatment concentration 8 μg/ml
[8] = peptide treatment concentration 16 μg/ml
[9] = peptide treatment concentration 32 μg/ml
[10] = peptide treatment concentration 64 μg/ml

SMILES	Minimal inhibitory concentration MIC (E. coli)	Minimal inhibitory concentration MIC (MDREC 1229 [1])	Minimal inhibitory concentration MIC (MDREC 1238)	Minimal inhibitory concentration MIC (MDRPA 2002)	Minimal inhibitory concentration MIC (MDRPA 2003)	Minimal inhibitory concentration MIC (MDRAB 12036)	Minimal inhibitory concentration MIC (S. typhimurium)	Minimal inhibitory concentration MIC (MDRST 8009)	Minimal inhibitory concentration MIC (B. subtilis)	Minimal inhibitory concentration MIC (S. aureus)	Minimal inhibitory concentration MIC (MRSA 3114)	Minimal inhibitory concentration MIC (MRSA 3126)	Antibiotic MIC, Erythromycin (MDREC 1229 [2]; [3])	Antibiotic MIC, Linezolid (MDREC 1229 [2]; [3])	Antibiotic MIC, Vancomycin (MDREC 1229 [2]; [3])	Antibiotic MIC, Erythromycin (MDREC 1229 [2]; [4])	Antibiotic MIC, Linezolid (MDREC 1229 [2]; [4])	Antibiotic MIC, Vancomycin (MDREC 1229 [2]; [4])	Antibiotic MIC, Erythromycin (MDREC 1229 [2]; [5])	Antibiotic MIC, Linezolid (MDREC 1229 [2]; [5])	other results
CC[C@H](C)[C@H](NC(=O)[C@H](CCCCN)NC(=O)[C@H](Cc1c[nH]c2ccccc12)NC(=O)[C@@H](N)CCCNC(=N)N)C(=O)N[C@@H](Cc1ccccc1)C(=O)N[C@@H](CCCCN)C(=O)N[C@@H](CCCCN)C(=O)N[C@H](C(=O)N1CCC[C@H]1C(=O)N[C@@H](CCCCN)C(=O)N[C@@H](CC(C)C)C(=O)N[C@@H](CC(C)C)C(=O)N[C@@H](Cc1c[nH]cn1)C(=O)N[C@@H](CO)C(=O)N[C@@H](CC(C)C)C(=O)N[C@@H](CCCCN)C(=O)N[C@@H](CCCCN)C(=O)N[C@@H](Cc1c[nH]c2ccccc12)C(N)=O)[C@@H](C)CC [PapMA-10, RWK IFK KIP KLL HSL KKW-NH2] (H-RWKIFKKIPKLLHSLKKW-NH2; N-terminus assumed)	32 µg/mL (≈ 13.6 µM)	64 µg/mL (≈ 27.2 µM)	64 µg/mL (≈ 27.2 µM)	8 µg/mL (≈ 3.41 µM)	16 µg/mL (≈ 6.81 µM)	32 µg/mL (≈ 13.6 µM)	16 µg/mL (≈ 6.81 µM)	32 µg/mL (≈ 13.6 µM)	>128 µg/mL	>128 µg/mL	>128 µg/mL	>128 µg/mL	>128 µg/mL	>128 µg/mL	>128 µg/mL	64 µg/mL	>128 µg/mL	>128 µg/mL	16 µg/mL	128 µg/mL	Antibacterial activity relative to PapMA-1 (E. coli): at least twice as high; Antibiotic MIC, Vancomycin (MDREC 1229 [2]; [5]): >128 µg/mL; Antibiotic MIC, Erythromycin (MDREC 1229 [2]; [6]): 8 µg/mL; Antibiotic MIC, Linezolid (MDREC 1229 [2]; [6]): 64 µg/mL; Antibiotic MIC, Vancomycin (MDREC 1229 [2]; [6]): >128 µg/mL; Antibiotic MIC, Erythromycin (MDREC 1229 [2]; [7]): 2 µg/mL; Antibiotic MIC, Linezolid (MDREC 1229 [2]; [7]): 64 µg/mL; Antibiotic MIC, Vancomycin (MDREC 1229 [2]; [7]): 128 µg/mL; Antibiotic MIC, Erythromycin (MDREC 1229 [2]; [8]): 1 µg/mL; Antibiotic MIC, Linezolid (MDREC 1229 [2]; [8]): 16 µg/mL; Antibiotic MIC, Vancomycin (MDREC 1229 [2]; [8]): 32 µg/mL; Antibiotic MIC, Erythromycin (MDREC 1229 [2]; [9]): 0.25 µg/mL; Antibiotic MIC, Linezolid (MDREC 1229 [2]; [9]): 8 µg/mL; Antibiotic MIC, Vancomycin (MDREC 1229 [2]; [9]): 16 µg/mL; Antibiotic MIC, Erythromycin (MDREC 1229 [2]; [10]): 0 µg/mL; Antibiotic MIC, Linezolid (MDREC 1229 [2]; [10]): 0 µg/mL; Antibiotic MIC, Vancomycin (MDREC 1229 [2]; [10]): 0 µg/mL
CC[C@H](C)[C@H](NC(=O)[C@H](CCCCN)NC(=O)[C@H](Cc1c[nH]c2ccccc12)NC(=O)[C@@H](N)CCCNC(=N)N)C(=O)N[C@@H](Cc1ccccc1)C(=O)N[C@@H](CCCCN)C(=O)N[C@@H](CCCCN)C(=O)N[C@H](C(=O)N[C@H](CCCCN)C(=O)N[C@@H](CCCCN)C(=O)N[C@@H](CC(C)C)C(=O)N[C@@H](CC(C)C)C(=O)N[C@@H](Cc1c[nH]cn1)C(=O)N[C@@H](CO)C(=O)N[C@@H](C)C(=O)N[C@@H](CCCCN)C(=O)N[C@@H](CCCCN)C(=O)N[C@@H](Cc1c[nH]c2ccccc12)C(N)=O)[C@@H](C)CC [PapMA-16, RWK IFK KIk KLL HSA KKW-NH2] (H-RWKIFKKI[dK]KLLHSAKKW-NH2; N-terminus assumed)	64 µg/mL (≈ 27.4 µM)	64 µg/mL (≈ 27.4 µM)	64 µg/mL (≈ 27.4 µM)	64 µg/mL (≈ 27.4 µM)	64 µg/mL (≈ 27.4 µM)	32 µg/mL (≈ 13.7 µM)	64 µg/mL (≈ 27.4 µM)	64 µg/mL (≈ 27.4 µM)	>128 µg/mL	>128 µg/mL	>128 µg/mL	>128 µg/mL	>128 µg/mL	>128 µg/mL	>128 µg/mL	64 µg/mL	>128 µg/mL	>128 µg/mL	32 µg/mL	64 µg/mL	Peptide MIC, peptide alone (MDREC 1229 [1]): 64 µg/mL; Antibiotic MIC, Vancomycin (MDREC 1229 [2]; [5]): 128 µg/mL; Antibiotic MIC, Erythromycin (MDREC 1229 [2]; [6]): 4 µg/mL; Antibiotic MIC, Linezolid (MDREC 1229 [2]; [6]): 32 µg/mL; Antibiotic MIC, Vancomycin (MDREC 1229 [2]; [6]): 32 µg/mL; Antibiotic MIC, Erythromycin (MDREC 1229 [2]; [7]): 2 µg/mL; Antibiotic MIC, Linezolid (MDREC 1229 [2]; [7]): 16 µg/mL; Antibiotic MIC, Vancomycin (MDREC 1229 [2]; [7]): 16 µg/mL; Antibiotic MIC, Erythromycin (MDREC 1229 [2]; [8]): 1 µg/mL; Antibiotic MIC, Linezolid (MDREC 1229 [2]; [8]): 8 µg/mL; Antibiotic MIC, Vancomycin (MDREC 1229 [2]; [8]): 8 µg/mL; Antibiotic MIC, Erythromycin (MDREC 1229 [2]; [9]): 0.5 µg/mL; Antibiotic MIC, Linezolid (MDREC 1229 [2]; [9]): 4 µg/mL; Antibiotic MIC, Vancomycin (MDREC 1229 [2]; [9]): 4 µg/mL; Antibiotic MIC, Erythromycin (MDREC 1229 [2]; [10]): 0 µg/mL; Antibiotic MIC, Linezolid (MDREC 1229 [2]; [10]): 0 µg/mL; Antibiotic MIC, Vancomycin (MDREC 1229 [2]; [10]): 0 µg/mL
CC[C@H](C)[C@H](NC(=O)[C@H](CCCCN)NC(=O)[C@H](Cc1c[nH]c2ccccc12)NC(=O)[C@@H](N)CCCNC(=N)N)C(=O)N[C@@H](Cc1ccccc1)C(=O)N[C@@H](CCCCN)C(=O)N[C@@H](CCCCN)C(=O)N[C@H](C(=O)N1CCC[C@H]1C(=O)N[C@@H](CCCCN)C(=O)N[C@@H](CC(C)C)C(=O)N[C@@H](CC(C)C)C(=O)N[C@@H](Cc1c[nH]cn1)C(=O)N[C@@H](CO)C(=O)N[C@@H](C)C(=O)N[C@@H](CCCCN)C(=O)N[C@@H](CCCCN)C(=O)N[C@@H](Cc1c[nH]c2ccccc12)C(N)=O)[C@@H](C)CC [PapMA-9, RWK IFK KIP KLL HSA KKW-NH2] (H-RWKIFKKIPKLLHSAKKW-NH2; N-terminus assumed)	32 µg/mL (≈ 13.9 µM)	64 µg/mL (≈ 27.7 µM)	64 µg/mL (≈ 27.7 µM)	16 µg/mL (≈ 6.94 µM)	16 µg/mL (≈ 6.94 µM)	64 µg/mL (≈ 27.7 µM)	32 µg/mL (≈ 13.9 µM)	64 µg/mL (≈ 27.7 µM)	>128 µg/mL	>128 µg/mL	>128 µg/mL	>128 µg/mL	64 µg/mL	128 µg/mL	>128 µg/mL	64 µg/mL	64 µg/mL	>128 µg/mL	8 µg/mL	32 µg/mL	Antibacterial activity relative to PapMA-1 (E. coli): at least twice as high; Antibiotic MIC, Vancomycin (MDREC 1229 [2]; [5]): 128 µg/mL; Antibiotic MIC, Erythromycin (MDREC 1229 [2]; [6]): 2 µg/mL; Antibiotic MIC, Linezolid (MDREC 1229 [2]; [6]): 16 µg/mL; Antibiotic MIC, Vancomycin (MDREC 1229 [2]; [6]): 32 µg/mL; Antibiotic MIC, Erythromycin (MDREC 1229 [2]; [7]): 1 µg/mL; Antibiotic MIC, Linezolid (MDREC 1229 [2]; [7]): 8 µg/mL; Antibiotic MIC, Vancomycin (MDREC 1229 [2]; [7]): 8 µg/mL; Antibiotic MIC, Erythromycin (MDREC 1229 [2]; [8]): 0.5 µg/mL; Antibiotic MIC, Linezolid (MDREC 1229 [2]; [8]): 4 µg/mL; Antibiotic MIC, Vancomycin (MDREC 1229 [2]; [8]): 4 µg/mL; Antibiotic MIC, Erythromycin (MDREC 1229 [2]; [9]): 0.125 µg/mL; Antibiotic MIC, Linezolid (MDREC 1229 [2]; [9]): 2 µg/mL; Antibiotic MIC, Vancomycin (MDREC 1229 [2]; [9]): 2 µg/mL; Antibiotic MIC, Erythromycin (MDREC 1229 [2]; [10]): 0 µg/mL; Antibiotic MIC, Linezolid (MDREC 1229 [2]; [10]): 0 µg/mL; Antibiotic MIC, Vancomycin (MDREC 1229 [2]; [10]): 0 µg/mL
